Marks after values point to notes of the source that are not given here. Peptide text beside a SMILES is read from it.
What was measured:
[1] = Alexa488-SA-labelled IM1-IM6 binding to metal-charged NTA-coated plate (x2B d); conditions: no peptide background = 1.0
Method: NTA-metal-affinity fluorescence assay was performed using 96-well NTA-metal-coated plates readily available from commercial sources such as Qiagen (Germantown, MD). NTA was charged with ferrous or ferric iron, zinc, copper, calcium, vanadium, ruthenium, cobalt, titanium, manganese or other metals. 400 ng of FITC-labeled immodulator peptide (or biotinylated immodulator peptide complexed to Alexa-488-labeled streptavidin) in PBS buffer was added per plate. After incubation at room temperature for 60 minutes, excess peptide was washed off and peptide was detected by measuring fluorescence (excitation 490 nm, emmission 525 nm) in a fluorometer. • (a) Using FITC-labeled IM3 peptide (1 ug/well) in the fluorescent binding assay: • EDTA-treated control: 2,251±1,186 • Ferrous iron: 170,441±11,264 (p<0.001)* • Copper: 13,644±5566 (p<0.05)* • Calcium: 48,822±11,990 (p<0.01)* • *p values are relative to EDTA-treated control • (b) Competition binding assay to ferrous iron, calcium, copper and zinc-charged NTA-coated plates using FITC-labeled IM3 peptide (0.5 uM) and 8× (4 uM) unlabelled competitor peptides IM3N1, IM3N2 (*all comparisons to PBS control are p<0.01); # fluorescent value of binding to […] was set at 100.
Ferrous iron # (100±2.6*); Control (no metal): 6.4±3.1; Ferric iron: 94.1±6.6*; Calcium: 47.6±3.7*; Vanadium: 53.9±5.5*; Manganese: 54.4±11.2*; Cobalt: 25.4±2.3*; Copper: 58.4±6.4*; Zinc: 71.4±8.3*; Ruthenium: 67.8±8.3*; (d) Alexa488-SA-labelled immodulator peptide IM1, IM2, IM3, IM4, IM5, IM6 (400 ng/well) were bound to NTA-coated plate charged with the indicated metals: # background (no peptide) control set to 1.0;*p<0.05, **p<0.01 vs “no peptide”

[2] = FITC-PI(4,5)P2 binding to plate-bound peptide with calcium (x9A)
Method: (§1) Immodulator peptides IM1, IM3 and IM5 (400 ng/well) in PBS were bound to streptavidin-coated 96-well plates at room temperature for 60 minutes, in the presence or absence of 500 uM calcium chloride. Each well also received 200 ng cold PPI plus 10 ng FITC-labeled PI(4,5)P2 or PI(4)P1. The tables below show the relative fluorescence (with/without calcium background) expressed as a percentage of the highest binder, FITC-PI(4,5)P2+cold PI(3,5)P2, which was 2,496 fluorescence units. Background binding without calcium was, in all cases, 200-300 fluorescence units.

[3] = target: T1, AA111-228 DNA-binding domain of RXR-alpha (RXRa-DBD) (Homo sapiens, UniProt P19793); experiment: Binding to RXRa-DBD (x3A); conditions: 1 ug/well RXRa-DBD, 800 ng/well SA488-labelled peptide; background subtracted
T1 construct: purchased Abcam, Cambridge, MA
T1 sequence (P19793 111-228): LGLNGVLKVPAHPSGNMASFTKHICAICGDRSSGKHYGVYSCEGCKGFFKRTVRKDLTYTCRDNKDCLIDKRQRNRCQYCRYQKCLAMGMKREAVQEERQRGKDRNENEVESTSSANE
Method: Binding of immodulator peptides to AA111-228 DNA-binding domain of RXR-alpha (RXRa-DBD). 1 ug/well recombinant RXRa-DBD (Abcam, Cambridge, MA) was adsorbed to wells of a 96-well plate for 60 minutes at RT, then blocked with 200 uL 1% BSA in PBS buffer overnight. Plate was washed and 800 ng/well Streptavidin-Alexa 488 conjugate (SA488)-labelled IM peptide was added. The plate was incubated for 60 min at room temperature, washed and counted in a standard fluorometer (excitation/emission 485/525 nm). Background (buffer alone) was subtracted.

[4] = Strength of binding to iron, plate assay (x2E b); conditions: 1 ug/well peptide complexed to Alexa-488-streptavidin; ferric iron
Outline: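 Streptavidin-Alexa-488-complexed peptides, some C-terminally extended by three amino acids, were added at 1 ug/well in PBS to ferric iron-charged NTA-coated plates for 60 min at room temperature. Plates were washed and read by fluorescence (485/525 nm).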

[5] = FITC-PI(4)P1 binding to plate-bound peptide with calcium (x9A)
Method: as §1

[6] = cold PPI: None, 500 uM calcium chloride

| SMILES | fluorescence ([1]; Calcium) | fluorescence ([1]; Copper) | fluorescence ([1]; Ferrous iron, 400 ng/well) | fluorescence ([1]; Zinc) | relative fluorescence, FITC-PI(4,5)P2 bound ([2]; cold PPI: 3,4,5-P3, calcium) | relative fluorescence, FITC-PI(4,5)P2 bound ([2]; cold PPI: 3,4-P2, calcium) | relative fluorescence, FITC-PI(4,5)P2 bound ([2]; cold PPI: 3,5-P2, calcium) | relative fluorescence, FITC-PI(4,5)P2 bound ([2]; cold PPI: 3-P1, calcium) | relative fluorescence, FITC-PI(4,5)P2 bound ([2]; cold PPI: 4,5-P2, calcium) | relative fluorescence, FITC-PI(4,5)P2 bound ([2]; cold PPI: 4-P1, calcium) | relative fluorescence, FITC-PI(4,5)P2 bound ([2]; cold PPI: 5-P1, calcium) | relative fluorescence, FITC-PI(4,5)P2 bound [2, 6] | fluorescence [3] | fluorescence (iron binding) [4] | relative fluorescence, FITC-PI(4)P1 bound ([5]; cold PPI: 3,4,5-P3) | relative fluorescence, FITC-PI(4)P1 bound ([5]; cold PPI: 3,4-P2) | relative fluorescence, FITC-PI(4)P1 bound ([5]; cold PPI: 3,5-P2) | relative fluorescence, FITC-PI(4)P1 bound ([5]; cold PPI: 3-P1) | relative fluorescence, FITC-PI(4)P1 bound ([5]; cold PPI: 4,5-P2) | relative fluorescence, FITC-PI(4)P1 bound ([5]; cold PPI: 4-P1) | also measured |
| --- | --- | --- | --- | --- | --- | --- | --- | --- | --- | --- | --- | --- | --- | --- | --- | --- | --- | --- | --- | --- | --- |
| CC[C@H](C)[C@H](NC(=O)CNC(=O)[C@H](CCCNC(=N)N)NC(=O)[C@H](CCCCN)NC(=O)[C@H](CCCNC(=N)N)NC(=O)CNC(=O)[C@H](CCCNC(=N)N)NC(=O)[C@H](CO)NC(=O)[C@@H]1CCCN1C(=O)[C@H](CCCCN)NC(=O)[C@H](CS)NC(=O)[C@H](CCC(N)=O)NC(=O)[C@H](CCCCN)NC(=O)[C@H](CCCNC(=N)N)NC(=O)[C@H](CCCCN)NC(=O)[C@H](Cc1ccc(O)cc1)NC(=O)[C@H](Cc1ccccc1)NC(=O)CNC(=O)[C@H](CCCCN)NC(=O)[C@@H](N)CCCNC(=N)N)C(=O)N[C@@H](CS)C(=O)N[C@@H](Cc1c[nH]c2ccccc12)C(=O)O [IM5] (H-RKGFYKRKQCKPSRGRKRGICW-OH; N-terminus and C-terminus assumed) | 23.4 ± 0.8** | 5.6 ± 0.1** | 20.5 ± 1.5** | 23.6 ± 0.1** | 0.2 percentage of the highest binder | 12.3 percentage of the highest binder | 16.9 percentage of the highest binder | 0.3 percentage of the highest binder | 7.6 percentage of the highest binder | 2.3 percentage of the highest binder | 2.7 percentage of the highest binder | 2.6 percentage of the highest binder | 6,802±336 | 130±77 | 1.2 percentage of the highest binder | 1.7 percentage of the highest binder | 1.3 percentage of the highest binder | 0.9 percentage of the highest binder | 1.8 percentage of the highest binder | 0.8 percentage of the highest binder | relative fluorescence, FITC-PI(4)P1 bound ([5]; cold PPI: 5-P1): 0.4 percentage of the highest binder; relative fluorescence, FITC-PI(4)P1 bound ([5]; cold PPI: None): 2.1 percentage of the highest binder |
| N=C(N)NCCC[C@H](NC(=O)CNC(=O)[C@H](CCCCN)NC(=O)[C@H](CO)NC(=O)[C@@H]1CCCN1C(=O)[C@H](CCCNC(=N)N)NC(=O)[C@H](CS)NC(=O)[C@H](CCC(N)=O)NC(=O)[C@H](CCCCN)NC(=O)[C@H](CCCCN)NC(=O)[C@H](CCCCN)NC(=O)[C@H](Cc1ccc(O)cc1)NC(=O)[C@H](Cc1ccccc1)NC(=O)CNC(=O)[C@H](CCCCN)NC(=O)[C@@H](N)CCCCN)C(=O)N[C@@H](CCCCN)C(=O)N[C@@H](CCCNC(=N)N)C(=O)NCC(=O)N[C@@H](Cc1ccccc1)C(=O)N[C@@H](CS)C(=O)N[C@@H](Cc1c[nH]c2ccccc12)C(=O)O [IM3] (H-KKGFYKKKQCRPSKGRKRGFCW-OH; N-terminus and C-terminus assumed) | 28.7 ± 0.7** | 6.2 ± 0.2** | 24.7 ± 1.6** | 32.0 ± 0.7** | 3.2 percentage of the highest binder | 51.5 percentage of the highest binder | 100.0 percentage of the highest binder | 1.7 percentage of the highest binder | 63.7 percentage of the highest binder | 6.3 percentage of the highest binder | 10.4 percentage of the highest binder | 2.2 percentage of the highest binder | 6,572±129 | 200±29 | 1.2 percentage of the highest binder | 2.4 percentage of the highest binder | 5.6 percentage of the highest binder | 2.5 percentage of the highest binder | 0.1 percentage of the highest binder | 2.4 percentage of the highest binder | fluorescence of the highest binder ([2]; FITC-PI(4,5)P2 + cold PI(3,5)P2, calcium): 2,496 fluorescence units; relative fluorescence, FITC-PI(4)P1 bound ([5]; cold PPI: 5-P1): 1.9 percentage of the highest binder; relative fluorescence, FITC-PI(4)P1 bound ([5]; cold PPI: None): 2.5 percentage of the highest binder |

From patent US12102685B2, “Immodulator peptides covalently modified with small molecules” (priority 2020, dated 2024)
